Test results taken from ChEMBL document CHEMBL1135834, “First non-ATP competitive glycogen synthase kinase 3 beta (GSK-3beta) inhibitors: thiadiazolidinones (TDZD) as potential drugs for the treatment of Alzheimer's disease” (J Med Chem, 2002).
pIC50: −log10 of the molar value.

Experiments:
[1] = Inhibition of catalytic subunit of protein kinase A (PKA) from bovine heart; design: species or system Bos taurus
[2] = molecular target: Cyclin-dependent kinase 1/cyclin B (Homo sapiens, UniProt P06493); experiment: Inhibition of Cyclin dependent kinase 1-cyclinB; type: protein-complex assay
Bos taurus = species: Bos taurus; experiment: Specific activity against Protein kinase A (PKA) from bovine heart
[3] = molecular target: Cyclin-dependent kinase 1/cyclin B (Homo sapiens) (UniProt P06493+P14635+Q8WWL7+O95067); experiment: Specific activity against Cyclin dependent kinase 1-cyclin B; type: protein-complex assay
[4] = molecular target: Casein kinase II (Homo sapiens) (UniProt P67870+P68400+P19784); experiment: Specific activity against Casein kinase II (CK II); type: protein-complex assay; conditions: Bos taurus

pIC50 [1]: < 4.00
pIC50 [2]: < 4.00
Specific activity (nM Pi min-1 (mg of protein)-1) (Bos taurus): 4
Specific activity (nM Pi min-1 (mg of protein)-1) [3]: 0.4
Specific activity (uM Pi/min/mg protein) [4]: 0.4
Structure (SMILES): Cn1sc(=O)n(Cc2ccccc2)c1=O
